Measured values: ChEMBL document CHEMBL4811216, “Chemotherapy for human schistosomiasis: how far have we come? What's new? Where do we go from here?” (RSC Med Chem, 2020)

Legend:
Assay type in all cases: functional
Schistosoma mansoni [1] = assay: Antischistosomal activity against Schistosoma mansoni miracidia assessed as worm death incubated for 1 to 2 hrs by microscopic method relative to control; conditions: time 1-2 hrs
Schistosoma mansoni [2] = assay: Antischistosomal activity against Schistosoma mansoni cercariae assessed as worm death incubated for 2 hrs by microscopic method relative to control
Schistosoma mansoni [3] = assay: Antischistosomal activity against Schistosoma mansoni LE assessed as reduction in worm motor activity at 100 uM measured after 72 hrs relative to control; set-up: scale not given: the % may be the effect or the level left
Schistosoma mansoni [4] = assay: Antischistosomal activity against Schistosoma mansoni LE assessed as worm mortality at 200 uM measured after 24 hrs relative to control
Schistosoma mansoni [5] = assay: Antischistosomal activity against Schistosoma mansoni Liberian NTS at 10 uM measured after 24 hrs relative to control
Schistosoma mansoni [6] = assay: Antischistosomal activity against juvenile Schistosoma mansoni BH infected in Balb/C mouse assessed as reduction in worm burden at 40 mg/kg, po administered at 21 days post infection and measured at 15 days post treatment relative to control; set-up: scale not given: the % may be the effect or the level left; conditions: time 15 day
Schistosoma mansoni [7] = assay: Antischistosomal activity against adult Schistosoma mansoni BH infected in Balb/C mouse assessed as reduction in worm burden at 40 mg/kg, po administered at 45 days post infection and measured at 15 days post treatment relative to control; set-up: scale not given: the % may be the effect or the level left; conditions: time 15 day
Schistosoma mansoni [8] = assay: Antischistosomal activity against adult Schistosoma mansoni BH assessed as tegument damage at 150 to 200 ug/ml incubated for 120 hrs measured every 24 hrs by light microscopy relative to control; conditions: dose 150-200 µg/ml, at 150 to 200 µg/mL
Schistosoma mansoni [9] = assay: Antischistosomal activity against adult Schistosoma mansoni BH assessed as worm death at 150 to 200 ug/ml incubated for 120 hrs measured every 24 hrs by light microscopy relative to control; conditions: dose 150-200 µg/ml, at 150 to 200 µg/mL
Schistosoma mansoni [10] = assay: Antischistosomal activity against adult Schistosoma mansoni BH assessed as reduction in motor activity at 150 to 200 ug/ml incubated for 120 hrs measured every 24 hrs by light microscopy relative to control; set-up: scale not given: the % may be the effect or the level left; conditions: dose 150-200 µg/ml, at 150 to 200 µg/mL
Schistosoma mansoni [11] = assay: Antischistosomal activity against adult Schistosoma mansoni BH infected in Balb/C mouse assessed as reduction in number of eggs at 40 mg/kg, po administered at 45 days post infection and measured at 15 days post treatment relative to control; set-up: scale not given: the % may be the effect or the level left; conditions: time 15 day
Schistosoma mansoni [12] = assay: Antischistosomal activity against juvenile Schistosoma mansoni BH infected in Balb/C mouse assessed as reduction in worm burden at 100 mg/kg, po measured after 2 weeks; set-up: scale not given: the % may be the effect or the level left
Schistosoma mansoni [13] = assay: Antischistosomal activity against adult Schistosoma mansoni BH infected in Balb/C mouse assessed as reduction in worm burden at 100 mg/kg, po measured after 2 weeks; set-up: scale not given: the % may be the effect or the level left
Schistosoma mansoni [14] = assay: Antischistosomal activity against Schistosoma mansoni BH infected in Balb/C mouse assessed as reduction in worm burden at 100 mg/kg, po measured after 2 weeks by Kato-Katz quantitative method; conditions: Schistosoma mansoni, BH, po, 336 h
Schistosoma mansoni [15] = assay: Antischistosomal activity against Schistosoma mansoni BH assessed as tegument damage at 3.125 to 25 ug/ml measured up to 120 hrs by inverted microscopic method relative to control; conditions: dose 3.125-25 µg/ml; time hrs <=120; at 3.125 to 25 µg/mL
Schistosoma mansoni [16] = assay: Antischistosomal activity against Schistosoma mansoni BH assessed as changes in motor activity at 3.125 to 25 ug/ml measured up to 120 hrs by inverted microscopic method relative to control; conditions: dose 3.125-25 µg/ml; time hrs <=120; at 3.125 to 25 µg/mL
Schistosoma mansoni [17] = assay: Schistosomicidal-activity against Schistosoma mansoni LE assessed as seperation of worm couples at 25 uM measured within 120 hrs relative to control
Schistosoma mansoni [18] = assay: Schistosomicidal-activity against Schistosoma mansoni LE assessed as reduction in motor activity at 50 uM measured after 120 hrs relative to control; set-up: scale not given: the % may be the effect or the level left

CC1=CC(=O)CC(C)(C)C1(O)/C=C/C(C)O[C@@H]1O[C@H](COC(=O)c2cc(O)c(O)c(O)c2)[C@@H](O)[C@H](O)[C@H]1O (stereo partly drawn)
mortality (Schistosoma mansoni [1]): 99.7%
mortality (Schistosoma mansoni [2]): 41%

COC(=O)/C=C/c1ccc2c(c1)[C@@H](C(=O)OC)[C@H](c1ccc(OC(C)=O)cc1)O2
Activity (Schistosoma mansoni [3]): 100%
Activity (Schistosoma mansoni [4]): 100%

Cn1cnc(C[C@H]2CCC(=O)[C@@H]2[C@H](O)c2ccccc2)c1
Activity (Schistosoma mansoni [5]): 100%
Activity (Schistosoma mansoni [6]): 50.2%
Activity (Schistosoma mansoni [7]): 70%
Activity (Schistosoma mansoni [8]): 100%
mortality (Schistosoma mansoni [9]): 100%
Activity (Schistosoma mansoni [10]): 100%
Activity (Schistosoma mansoni [11]): 80%

Cn1cncc1C[C@H]1CCC(=O)[C@H]1C(O)c1ccccc1 (stereo partly drawn)
Activity (Schistosoma mansoni [12]): 58%
Activity (Schistosoma mansoni [13]): 60.6%
mortality at 100 mg/kg (Schistosoma mansoni [14]): 64.1%
Activity (Schistosoma mansoni [15]): 100%
Activity (Schistosoma mansoni [16]): 100%

COc1cc([C@@H]2OC(=O)[C@@H]3[C@H]2C(=O)O[C@H]3c2ccc(O)c(OC)c2)ccc1O
Activity (Schistosoma mansoni [17]): 25%
Activity (Schistosoma mansoni [18]): 25%
